Laboratory results: patent publication US7056908B2, “Pharmaceutical compositions and methods for preventing skin tumor formation and causing regression of existing tumors” (priority 1991, dated 2006)

How the values were obtained:
primary keratinocytes [1] = assay type: cell-based, mouse; details: 60 nM bryostatin for 1 day
Procedure: EGF binding was assessed in 6-well tissue culture dishes plated at a cell density of 2.5×10^6 cells/well (Strickland, J. E. et al, “Interaction of epidermal growth factor with basal and differentiating epidermal cells of mice resistant and sensitive to carcinogenesis,” Carcinogenesis, 5: 735–740, 1984). […] A second set of cultures received, in addition, 1 μg/ml unlabelled EGF to assess non-specific binding of radioactive ligand. Following the incubation period, cultures were washed 4 times with ice-cold binding buffer, harvested in 1.5 ml lysis buffer (0.1 M tris (pH 7.4), 0.5% SDS, 1 mM EDTA), and radioactivity determined by scintillation counting.
Exposure of a variety of cultured cell types to TPA results in inhibition of EGF binding which is attributed to PKC-mediated phosphorylation of the EGF receptor (Diamond, L., “Tumor promoters and cell transformation,” In: D. Grunberger and S. P. Goff. (eds.), Mechanisms of Cellular Transformation by Carcinogenic Agents, pp. 73–133, New York: Pergamon Press. 1987).
Each point is the mean of trilpicate dishes±standard error of the mean.

primary keratinocytes [2] = test: Cornified envelope formation in primary keratinocytes; assay type: cell-based, mouse; details: additional experiment, 60 nM bryostatin
Procedure: Cornified Envelope Quantitation. Keratinocytes were analyzed for cornified envelope formation as described (Nagae, S. et al, “Effect of retinoic acid on cornified envelope formation: difference between spontaneous envelope formation in vivo or in vitro and expression of envelope competence,” J. Invest., Dermatol., 89: 51–58, 1987), with minor modifications. Floating cells were harvested by collecting culture medium from each 60 mm dish and combining with two washes using phosphate-buffered saline without Ca^2+ and Ms^+2 (PBS). Cells were pelleted for 5 minutes at 1000 rpm in a benchtop clinical centrifuge and resuspended in 100 μl of lysis buffer (2% sodium dodecyl sulfate (SDS) and 20 mM dithiothreitol in PBS). Attached cells were harvested in 250 μl lysis buffer, combined with the preparation of floating cells, and incubated at 95° for 10 minutes. The non-solubilized, intact cornified envelopes, characteristic of terminally differentiated keratinocytes, were counted using a hemocytometer (Nagae, S. et al, “Effect of retinoic acid on cornified envelope formation: difference between spontaneous envelope formation in vivo or in vitro and expression of envelope competence,” J. Invest. Dermatol., 89: 51–58, 1987).
Floating and attached cell populations were harvested and cornified envelopes isolated. Data are mean values for three separate dishes±standard error of the mean from one experiment.
7 day old primary keratinocytes were cultured with or without 60 nM bryostatin for 15 hours. […] Each data bar is the average value from duplicate dishes with the range indicated by error bars.

## CCC/C=C/C=C/C(=O)O[C@H]1/C(=C/C(=O)OC)C[C@H]2C[C@H]([C@@H](C)O)OC(=O)C[C@H](O)C[C@@H]3C[C@H](OC(C)=O)C(C)(C)[C@](O)(C[C@@H]4C/C(=C/C(=O)OC)C[C@H](/C=C/C(C)(C)[C@]1(O)O2)O4)O3 [bryostatin]
Primary keratinocytes [1]; average over a 4 hour period
  block by bryostatin pre-treatment of staurosporine-mediated inhibition of 125I-EGF binding: 50%
Primary keratinocytes [1]; over a 4 hour period
  block by bryostatin pre-treatment of TPA-mediated inhibition of 125I-EGF binding: completely blocked
Primary keratinocytes [2]; TPA-treated cultures
  reduction of cornified envelope formation by bryostatin pre-treatment: 70%
Primary keratinocytes [2]; staurosporine-treated cultures
  reduction of cornified envelope formation by bryostatin pre-treatment: 70%
